# Patent US11406720B2, “Fibroblast growth factor receptor 2-specific peptide reagents and methods” (THE REGENTS OF THE UNIVERSITY OF MICHIGAN, priority 2017, dated 2022)
# pKd: −log10 of the molar value. “Also recorded” adds a separate entry of the source. Where no end group is shown, it is not given here.
# Columns and labels:
# [1] = molecular target: T1, QhTERT cells that express FGFR2c (Homo sapiens, UniProt P21802); assay: Competition for reagent binding with unlabeled peptide (confocal microscopy); settings: unlabeled peptide 50 μM and greater (up to 500 μM) vs 0 μM; 5 μM SRR*-Cy5.5; 4° C
# T1 construct: expressed in transfected cells; host or cells: QhTERT (human non-dysplastic Barrett's esophagus cells immortalized with hTert)
# T1 sequence (P21802 22-821): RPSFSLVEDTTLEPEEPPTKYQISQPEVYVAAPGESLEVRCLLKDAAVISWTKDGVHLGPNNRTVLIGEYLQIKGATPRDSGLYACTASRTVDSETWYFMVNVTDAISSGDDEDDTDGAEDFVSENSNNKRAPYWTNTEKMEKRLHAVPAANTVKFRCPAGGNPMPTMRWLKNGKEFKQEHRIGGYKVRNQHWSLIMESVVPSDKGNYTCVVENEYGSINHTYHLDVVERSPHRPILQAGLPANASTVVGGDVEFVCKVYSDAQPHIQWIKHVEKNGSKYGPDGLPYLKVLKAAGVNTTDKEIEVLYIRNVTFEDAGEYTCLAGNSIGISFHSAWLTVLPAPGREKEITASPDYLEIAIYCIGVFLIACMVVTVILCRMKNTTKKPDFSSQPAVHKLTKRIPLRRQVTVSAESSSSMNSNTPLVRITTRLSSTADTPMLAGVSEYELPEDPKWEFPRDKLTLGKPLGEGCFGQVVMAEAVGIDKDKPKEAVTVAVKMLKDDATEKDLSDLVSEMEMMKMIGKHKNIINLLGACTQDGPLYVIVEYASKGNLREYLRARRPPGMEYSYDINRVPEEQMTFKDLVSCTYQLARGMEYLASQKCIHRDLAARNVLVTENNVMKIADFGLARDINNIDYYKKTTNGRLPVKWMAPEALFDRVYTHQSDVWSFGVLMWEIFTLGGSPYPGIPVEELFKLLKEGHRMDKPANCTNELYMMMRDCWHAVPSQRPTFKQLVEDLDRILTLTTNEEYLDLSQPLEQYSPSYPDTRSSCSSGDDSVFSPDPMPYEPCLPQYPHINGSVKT
# Protocol: We administered unlabeled SRR*, and used confocal microscopy to observe competition for binding of SRR*-Cy5.5 to QhTERT cells that express FGFR2c, FIG. 3A-L. Approximately 10^3 cells were grown to ˜70% confluence on cover glass in triplicate. Unlabeled peptides at concentrations of 0, 50, 100, 150, 250, and 500 μM were incubated with the cells for 30 min at 4° C. The cells were washed and incubated with 5 μM of the target peptide for another 30 min at 4° C. The cells were washed and fixed with 4% PFA for 5 min. The cells were washed with PBS and mounted with ProLong Gold reagent containing DAPI (Invitrogen).
# [2] = test system: phosphorylation of FGFR2 (p-FGFR), AKT (p-AKT) and ERK (p-ERK) in QhTERT cells that express FGFR2b; assay: Effect on cell signaling, Western blot, FGFR2b cells; type: cell-based, human; settings: peptide 5 or 100 μM, FGF1 100 ng/mL, 20 min, vs untreated cells
# Protocol: (§1) QhTERT cells that overexpress either FGFR2b or FGFR2c were seeded in 12-well flat-bottom plates with 500 μL of serum-free medium for 16 hours. FGF1 (#2232-FA-025, R&D systems) was reconstituted to a concentration of 100 μg/mL using PBS, diluted with 0.1% bovine serum albumin, and added to the cells at final concentrations of 100 ng/mL for 20 min in separate wells. Heparin (#H3149-10KU, Sigma) with final concentration of 100 unit/mL was also added to increase stability. In addition, peptides at concentrations of 5 and 100 μM were incubated for 20 min in separate wells. The cells were washed with PBS and lysed in RIPA buffer containing protease inhibitors (#11836170001, Roche, Basel, Switzerland). Lysates were separated by gel electrophoresis, transferred to polyvinylidene difluoride membranes (#ISEQ00010, Millipore), and detected by immunoblotting using an enhanced chemiluminescence system (#RPN2106, GE Healthcare). Anti-FGFR2 antibody (#SC 122, Santa Cruz Biotechnology), anti-phospho-FGFR (#3471, Cell Signaling Technology), anti-AKT (#4691P, Cell Signaling Technology), anti-ERK1/2 (#4695P, Cell Signaling Technology), anti-phospho-AKT (pS473; #4060P, Cell Signaling Technology), anti-phospho-ERK1/2 (#4370P, Cell Signaling Technology), and anti-tubulin (#32-2600, Invitrogen) were used as per manufacturer's instructions.
# [3] = molecular target: T1, QhTERT cells that express FGFR2c; assay: Apparent association time constant by flow cytometry; type: binding; settings: for apparent association time constant k: 5 μM, RT, 0 to 30 min; for time scale for onset of binding: from k
# Protocol: We measured the apparent association time constant of the peptide reagent to QhTERT/FGFR2c cells to assess binding onset.^46 Cells were grown to ˜80% confluence in 10 cm dishes, and detached with PBS-based cell dissociation buffer (Invitrogen). Cells (˜10^5) were incubated with 5 μM SRR-Cy5.5 at RT for various time intervals ranging from 0 to 30 min. The cells were centrifuged, and washed with cold PBS. Flow cytometry analysis was performed as described above, and the median fluorescence intensity (y) were measured on flow cytometry at different time points (t) using Flowjo software. The rate constant k was calculated by fitting the data to a first order kinetics model, y(t)=Imax[1−exp^(−kt)], where Imax=maximum value using Prism 5.0 software (GraphPad Inc).
# [4] = test system: phosphorylation of FGFR2 (p-FGFR), AKT (p-AKT) and ERK (p-ERK) in QhTERT cells that express FGFR2c; assay: Effect on cell signaling, Western blot, FGFR2c cells; type: cell-based, human; settings: peptide 5 or 100 μM, FGF1 100 ng/mL, 20 min, vs untreated cells
# Protocol: as §1
# [5] = molecular target: T2, QhTERT cells that express FGFR2b (Homo sapiens, UniProt P21802); assay: Confocal fluorescence microscopy, binding to QhTERT cells expressing FGFR2b
# T2 construct: expressed in transfected cells; host or cells: QhTERT (human non-dysplastic Barrett's esophagus cells immortalized with hTert)
# T2 sequence (P21802 22-822 isoform P21802-3 limits assumed): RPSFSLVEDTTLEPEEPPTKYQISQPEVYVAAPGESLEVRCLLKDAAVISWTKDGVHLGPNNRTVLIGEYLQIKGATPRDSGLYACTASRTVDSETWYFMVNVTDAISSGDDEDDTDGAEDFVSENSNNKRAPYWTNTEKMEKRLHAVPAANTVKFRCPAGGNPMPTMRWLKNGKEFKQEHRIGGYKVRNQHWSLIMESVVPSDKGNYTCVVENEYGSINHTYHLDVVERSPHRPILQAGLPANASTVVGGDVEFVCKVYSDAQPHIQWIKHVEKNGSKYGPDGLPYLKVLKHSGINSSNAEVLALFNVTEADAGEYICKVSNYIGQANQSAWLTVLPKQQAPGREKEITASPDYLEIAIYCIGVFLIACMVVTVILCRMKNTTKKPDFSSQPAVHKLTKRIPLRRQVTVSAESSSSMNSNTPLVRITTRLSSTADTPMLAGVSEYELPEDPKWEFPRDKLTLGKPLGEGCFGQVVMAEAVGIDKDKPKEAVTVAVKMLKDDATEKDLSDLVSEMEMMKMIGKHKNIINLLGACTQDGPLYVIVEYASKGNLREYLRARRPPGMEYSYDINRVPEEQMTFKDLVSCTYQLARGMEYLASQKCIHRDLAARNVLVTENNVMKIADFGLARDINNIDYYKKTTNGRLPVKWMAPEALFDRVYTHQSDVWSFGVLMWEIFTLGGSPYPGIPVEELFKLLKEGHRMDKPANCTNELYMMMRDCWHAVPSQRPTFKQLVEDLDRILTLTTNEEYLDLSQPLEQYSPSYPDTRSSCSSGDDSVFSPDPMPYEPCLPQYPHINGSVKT
# From the text: (§2) All human esophagus specimens were obtained with written, informed patient consent per approval and guidelines of the University of Michigan Institutional Review Board (IRB). Human non-dysplastic Barrett's esophagus (BE) cells immortalized with hTert (QhTERT) were obtained from the American Type Culture Collection (ATCC) and cultured in keratinocyte-serum free medium containing bovine pituitary extract and human recombinant EGF (ThermoFisher #17005042). QhTERT cells with stable expression of FGFR2b or FGFR2c were provided by DGB. We cultured these cells with keratinocyte-serum free medium containing bovine pituitary extract and human recombinant EGF (ThermoFisher #17005042) and added 1 μg/mL of puromycin-dihydrochloride (Invitrogen #A11138-03). All cells were cultured at 37° C. in 5% CO2, and were passaged using 0.25% EDTA containing trypsin (Mediatech Inc). A hemocytometer was used to count the cell number. Peptide synthesis reagents were obtained from either Anaspec or AAPPTEC with the highest grade available (>99% purity) and used without further purification. Solvents and other chemical reagents were obtained from Sigma-Aldrich, unless otherwise stated.
# (§3) On confocal microscopy, we validated specific peptide reagent binding to human BE cells that express FGFR2.
# [6] = molecular target: T1, QhTERT cells that express FGFR2c; assay: Confocal fluorescence microscopy, binding to QhTERT cells expressing FGFR2c
# From the text: as §2, §3
# [7] = test system: QhTERT cells wild type; assay: Confocal fluorescence microscopy, binding to wild-type QhTERT cells; design: species or system human
# From the text: as §2, §3
# [8] = test system: sections of human esophageal squamous cell cancer (SCC); assay: Confocal microscopy staining of human esophageal squamous cell carcinoma sections ex vivo; type: binding
# From the text: We observed good co-localization of peptide reagent and antibody binding on merged images, FIG. 10C. Representative histology (H&E) for SCC is shown, FIG. 10D.
# [9] = molecular target: T1, QhTERT cells that express FGFR2c; assay: Apparent dissociation constant by flow cytometry; type: binding; settings: 0 to 200 nM, 4° C, 1 hour
# Protocol: We measured the apparent dissociation constant kd for peptide reagent binding to cells to assess binding affinity.^45 The Cy5.5-labeled peptide reagent was serially diluted in PBS at concentrations ranging from 0 to 200 nM in 25 nM increments. QhTERT/FGFR2c cells (˜10^5) were incubated with peptide at 4° C. for 1 hour, washed with cold PBS, and the mean fluorescence intensities were measured using flow cytometry. The equilibrium dissociation constant kd=1/ka was calculated by performing a least squares fit of the data to the non-linear equation I=(I0+Imaxka[X])/([…]). I0 and Imax are the initial and maximum fluorescence intensities, corresponding to no peptide and at saturation, respectively, and [X] represents the concentration of the bound peptide reagent. Prism 5.0 software (GraphPad Inc) was used to calculate kd.
# [10] = test system: human esophageal specimens (SQ, BE, HGD, EAC); assay: Confocal microscopy staining of sections of human esophagus ex vivo; type: binding
# Protocol: Formalin-fixed sections of human esophageal specimens were deparaffinized, and antigen retrieval was performed using standard methods. Briefly, the sections were incubated in xylene for 3 min 3×, washed with 100% ethanol for 2 min 2×, and washed with 95% ethanol for 2 min 2×. Rehydration was performed by washing in dH2O for 5 min 2×. Antigen unmasking was performed by boiling the slides in 10 mM sodium citrate buffer with 0.05% Tween at pH 6.0, and then maintaining at sub-boiling temperature for 15 min. The slides were cooled for 30 min, and the sections were washed in dH2O for 3 min 3× and in PBS for 5 min. Blocking was performed with DAKO protein blocking agent (X0909, DAKO) for 1 hour at RT. The peptides were incubated at a concentration of 1 μM for 10 min at RT. The sections were washed in PBS for 3 min 3×, and incubated with 1:1000 dilution of monoclonal anti-FGFR2 (Abcam, ab58201) overnight at 4° C.
# The sections were then washed in PBS for 5 min 3×. A 1:500 dilution of AF488-labeled secondary antibody (goat anti-mouse) was added to each section and incubated for 30 min at RT. The secondary antibody solution was removed by washing with PBS for 5 min 3×. The sections were then mounted with ProLong Gold reagent containing DAPI (Invitrogen). The mean fluorescence intensities from 3 boxes (dimensions of […]) located completely within the surface epithelium of each specimen were measured. […] Serial sections were processed for routine histology (H&E), and were reviewed by an expert gastrointestinal pathologist (HDA).
# [11] = test system: sections of human gastric cancer; assay: Confocal microscopy staining of human gastric cancer sections ex vivo; type: binding
# From the text: We observed good co-localization of peptide and antibody binding on merged images, FIG. 11C. Representative histology (H&E) for gastric cancer is shown, FIG. S6D.
apparent association time constant k [3] [min⁻¹],time scale for onset of binding [3] [min],Molecule,change in binding (mean fluorescence intensity) of SRR*-Cy5.5 on addition of unlabeled peptide [1],"phosphorylation of FGFR2 (p-FGFR), AKT (p-AKT) and ERK (p-ERK) [2]","phosphorylation of FGFR2 (p-FGFR), AKT (p-AKT) and ERK (p-ERK) [4]",binding signal on cell surface (confocal microscopy) [5],binding signal on cell surface (confocal microscopy) [6],binding signal on cell surface (confocal microscopy) [7],further results
0.16,6.2,"C[C@H](NC(=O)[C@@H](NC(=O)[C@H](CCCNC(=N)N)NC(=O)[C@H](Cc1ccccc1)NC(=O)[C@H](CO)NC(=O)[C@H](C)NC(=O)[C@@H]1CCCN1C(=O)[C@H](CCCNC(=N)N)NC(=O)[C@H](CCCNC(=N)N)NC(=O)[C@@H](N)CO)[C@@H](C)O)C(=O)N[C@@H](CCCNC(=N)N)C(=O)N[C@@H](CCC(=O)O)C(N)=O (relative stereo) [SRR*, SRRPASFRTARE]",significant reduction; also recorded: significant decrease,no obvious change,no obvious change,,,,
,,"FGF1: FGF1 (#2232-FA-025, R&D systems), positive control that binds FGFR2b and FGFR2c [reference compound]",,to some extent; also recorded: shows phosphorylation activity,strong phosphorylation activity; also recorded: shows phosphorylation activity,,,,
,,"SPS*-Cy5.5: scrambled sequence SPSRERTFRARA for control, labeled with Cy5.5 via a GGGSK linker (SPSRERTFRARAGGGS-{K(Cy5.5)-NH2}) [reference compound]",,,,Minimal binding; also recorded: Minimal signal,Minimal binding; also recorded: Minimal signal,Minimal binding; also recorded: Minimal signal,
,,"SPSRERTFRARA [SPS*, unlabeled scrambled peptide used for control, reference compound]",No significant difference; also recorded: Non-significant differences,,,,,,
0.16,~6.2,SRR*-Cy5.5: 12 amino acid sequence SRRPASFRTARE with fluorophore Cy5.5 attached via a GGGSK linker on the C-terminus (not fully specified (C-terminus)),,,,strong signal; also recorded: strong binding,strong signal; also recorded: strong binding,minimal signal,"staining (fluorescence intensity) of section ([8]; human esophageal SCC): strong fluorescence intensity; also recorded: strong binding; staining (fluorescence intensity) of section ([8]; normal human esophagus): minimal fluorescence intensity; also recorded: minimal staining; mean fluorescence intensity from SCC versus normal ([8]; paired, two-sided t-test): significantly greater; pKd [9]: 7.17; mean fluorescence intensity versus control SPS*-Cy5.5 ([5]; compared with wild-type): significantly greater; mean target-to-background (T/B) ratio for HGD and EAC versus BE and SQ ([10]; 3 boxes of 30×30 μm^2): significantly higher; staining (fluorescence intensity) of section ([10]; Barrett's esophagus (BE)): minimal fluorescence intensity; also recorded: minimal staining; staining (fluorescence intensity) of section ([10]; esophageal adenocarcinoma (EAC)): strong signal; also recorded: strong binding; staining (fluorescence intensity) of section ([10]; high-grade dysplasia (HGD)): strong signal; also recorded: strong binding; mean fluorescence intensity from HGD and EAC compared with BE ([10]; n=28, 33, 22, 17 specimens of SQ, BE, HGD, EAC): significantly greater; staining (fluorescence intensity) of section ([10]; squamous (SQ)): minimal fluorescence intensity; also recorded: minimal staining; mean fluorescence intensity versus control SPS*-Cy5.5 ([6]; compared with wild-type): significantly greater; staining (fluorescence intensity) of section ([11]; human gastric cancer): strong fluorescence intensity; also recorded: strong binding; staining (fluorescence intensity) of section ([11]; normal human stomach): minimal fluorescence intensity; also recorded: minimal staining; mean fluorescence intensity from gastric cancer versus normal ([11]; paired, two-sided t-test): significantly greater"
